Our source for the inhibition values is patent publication US10098372B2, “Whitening composition and the use thereof” (INFINITUS (CHINA) COMPANY LTD, priority 2015, dated 2018).

Molecules are shown by their SMILES.

For assay [1], the system named is melanoma cells from B16 mice. Description: Effect on melanin content (melanin synthesis) in melanoma cells from B16 mice. The format is cell-based. The conditions noted are these: Mus musculus, 72 h, 3 days, n = 4, read-out: The inhibitory rate for melanin synthesis. As for the experimental part: The experiments were: melanoma cells from B16 mice (purchased from Shanghai Fuxiang Biotechnology Co., Ltd.) were adjusted with DMEM cell culture medium containing 10% fetal bovine serum, 100 U/mL penicillin and 100 U/mL streptomycin to reach a density of 1×10^5/mL, and were seeded into 6-well cell culture plates (3 mL per well). After cultured at 37° C., 5% CO2 for 24 h, the test sample (Example 2) was added. After 3 days, the supernatant was discarded, and the cells were washed with PBS, then added with trypsin to degest the cells for 3 min (0.5 mL per well). Afterwards, 2 mL cell culture medium was added to terminate the digestion reaction, and cells of each group were counted. After centrifugation, the supernatant was discarded, and 0.5 mL of 1 mol/L NaOH solution was added. After vibrated for 1 h, a 1500 r/min centrifugation was conducted for 5 min. 200 μL was respectively taken and transferred to a 96-well cell culture plate, and tested for absorbance at 450 nm via a microplate reader to calculate the inhibitory rate for melanin synthesis. In the experiment, the control wells were added with the same volume amount of PBS as that of the sample. […]
A is the absorbance of the wells containing drug (i.e., sample wells or positive control wells), B is the number of cells in the wells containing drug, C the absorbance of the control wells, D is the number of cells in control wells.

For assay [2], the target named is T1, intracellular tyrosinase in melanoma cells from B16 mice (Mus musculus, UniProt P11344).
T1 construct: B16 melanin cells were adjusted with DMEM cell culture medium; endogenous in cells; host or cells: B16 mouse melanoma cells
T1 sequence (P11344 19-533): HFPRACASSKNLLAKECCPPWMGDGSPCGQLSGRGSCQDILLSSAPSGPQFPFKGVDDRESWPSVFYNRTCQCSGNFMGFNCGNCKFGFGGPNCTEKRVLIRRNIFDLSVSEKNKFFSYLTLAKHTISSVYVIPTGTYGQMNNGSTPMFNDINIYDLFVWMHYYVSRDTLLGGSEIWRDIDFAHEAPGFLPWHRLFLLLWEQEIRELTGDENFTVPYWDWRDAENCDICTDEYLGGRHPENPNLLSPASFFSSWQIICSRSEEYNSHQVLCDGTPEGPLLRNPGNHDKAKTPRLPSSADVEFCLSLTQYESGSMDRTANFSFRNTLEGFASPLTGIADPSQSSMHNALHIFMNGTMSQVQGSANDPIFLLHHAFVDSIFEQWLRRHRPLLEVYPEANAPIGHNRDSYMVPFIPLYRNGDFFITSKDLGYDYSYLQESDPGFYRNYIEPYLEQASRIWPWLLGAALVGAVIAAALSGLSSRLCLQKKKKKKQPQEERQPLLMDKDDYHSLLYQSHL
Description: Effect on intracellular tyrosinase activity in melanoma cells from B16 mice. Format: cell-based. The conditions noted are these: 3 days, n = 4, read-out: Inhibitory rate for tyrosinase activity. As for the experimental part:
The experiments were: B16 melanin cells were adjusted with DMEM cell culture medium containing 10% fetal bovine serum, 100 U/mL penicillin and 100 U/mL streptomycin to reach a density of 1×10^5/mL, and were seeded into 6-well cell culture plates (3 mL per well). After cultured at 37° C., 5% CO2 for 24 h, the test sample (Example 2) was added. After 3 days, the supernatant was discarded, and the cells were washed with PBS for twice. After each well was added 180 μL PBS solution containing 1% (v/v) Triton X-100, the cells were subjected to ultrasonication under ice bath, then each well was added 20 μL 10 mmol/L of L-DOPA, incubated at 37° C. for 60 min. A 1500 r/min centrifugation was conducted for 5 min. 100 μL was respectively taken and transferred to a 96-well cell culture plate, and tested for absorbance at 492 nm via a microplate reader to calculate the inhibitory rate for intracellular tyrosinase activity. The control wells were added with the same volume amount of PBS as that of the sample. The positive control employs arbutin, at an effect concentration of 200 μM. Inhibition rate=(1−A/B)×100%
wherein A is the mean absorbance of the wells containing drug (i.e., sample wells or positive control wells), B is the mean absorbance of the control wells.

`OC[C@H]1O[C@@H](Oc2ccc(O)cc2)[C@H](O)[C@@H](O)[C@@H]1O` [Arbutin]: in assay [1], the inhibition at 200 µM was found to be 46.7 ± 10%. In addition, the inhibition at 400 µM in assay [2] stood at 49 ± 9.44%.
